Like-named read-outs stand apart in the source and are kept apart here.
Key:
CB1 receptor = biological target: T1, CB1 receptor (Mus musculus, UniProt P47746); test: Body temperature-lowering action on mouse (CB1 receptor agonistic activity in vivo); conditions: Jcl: ICR male mice, 1 mg/kg i.p., rectal temperature 30 minutes after administration, compared with control group
T1 construct: from tissue; host or cells: whole animal, Jcl: ICR male mice
Procedure: Body temperature-lowering action on mouse
CB1 receptor agonistic activity of the compound of the present invention in vivo was evaluated by investigating the effect on the body temperature of mouse after the drug was administered to the mouse. In this experiment, Jcl: ICR male mice (5 weeks old) were used. After measuring the rectal temperature with a thermometer (Physitemp BAT-12) that was connected to a probe for measuring body temperature, the compound dissolved in 2.2% EtOH and 5% G2-β-cyclodextrin (solvent) was administered intraperitoneally. Solvent only was administered to the control group. 30 minutes after administration, rectal temperature was measured again. The experiment was conducted for 4 subjects per a group.

human CB2 receptor = biological target: T2, human CB2 receptor (Homo sapiens, UniProt P34972); test: [3H]-CP55,940 binding inhibition assay, CHO cell membrane fraction expressing human CB2 receptor
T2 construct: expressed in transfected cells; host or cells: CHO cells (membrane fraction)
Procedure: (§1) [^3H]-CP55,940 binding assay with a cell membrane fraction expressing human CB1 and CB2 receptor
(§2) [^3H]-CP55940 binding inhibition assay was conducted by incubating a CHO cell membrane fraction expressing human CB1 receptor and the test compound and 500 pM [^3H]-CP55940 in reaction buffer (50 mM Tris-HCl (pH7.4), 5 mM MgCl2, 2.5 mM EDTA and 0.5% BSA (fatty acid free)) at room temperature for 60 minutes. The reaction solution was filtered through GF/C filter, washed with 300 μl of washing buffer (50 mM Tris-HCl (pH7.4), 0.05% BSA (fatty acid free)) four times, and the radioactivity of the filter was measured with a Top Count scintillation counter (Packard). As results, the test compound has inhibited binding of [^3H]-CP55940 to the membrane fraction dose-dependently.
(§3) The inhibitory activity of the test compound to [^3H]-CP55940 binding was calculated by percent on the basis that radioactivity is 100% when only 500 pM [^3H]-CP55940 was added, and 0% when 500 pM [^3H]-CP55940 and 100 nM CP55940 were added at the same time. Further, IC50 value of the test compound was calculated by analyzing concentrations and percents of the test compound with PRISM 3.0 (Graphpad Software, Inc.).
The same assay was also conducted for a CHO cell membrane fraction expressing human CB2 receptor, and the inhibitory activity to [^3H]-CP55940 binding was calculated.

human CB1 receptor = biological target: T3, human CB1 receptor (Homo sapiens, UniProt P21554); test: [3H]-CP55,940 binding inhibition assay, CHO cell membrane fraction expressing human CB1 receptor
T3 construct: expressed in transfected cells; host or cells: CHO cells (membrane fraction)
Procedure: as §1, §2, §3

T2 sequence (P34972 whole entry): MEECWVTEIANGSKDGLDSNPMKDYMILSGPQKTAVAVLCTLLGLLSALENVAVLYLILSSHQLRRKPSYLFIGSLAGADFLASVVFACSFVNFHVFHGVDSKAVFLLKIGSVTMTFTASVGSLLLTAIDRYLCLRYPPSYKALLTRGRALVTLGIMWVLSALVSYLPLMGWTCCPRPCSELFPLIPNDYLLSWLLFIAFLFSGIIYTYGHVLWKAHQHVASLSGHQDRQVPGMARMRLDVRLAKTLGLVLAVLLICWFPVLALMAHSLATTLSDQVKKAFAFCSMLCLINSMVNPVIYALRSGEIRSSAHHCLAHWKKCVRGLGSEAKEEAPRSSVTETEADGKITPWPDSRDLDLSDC
T3 sequence (P21554 whole entry): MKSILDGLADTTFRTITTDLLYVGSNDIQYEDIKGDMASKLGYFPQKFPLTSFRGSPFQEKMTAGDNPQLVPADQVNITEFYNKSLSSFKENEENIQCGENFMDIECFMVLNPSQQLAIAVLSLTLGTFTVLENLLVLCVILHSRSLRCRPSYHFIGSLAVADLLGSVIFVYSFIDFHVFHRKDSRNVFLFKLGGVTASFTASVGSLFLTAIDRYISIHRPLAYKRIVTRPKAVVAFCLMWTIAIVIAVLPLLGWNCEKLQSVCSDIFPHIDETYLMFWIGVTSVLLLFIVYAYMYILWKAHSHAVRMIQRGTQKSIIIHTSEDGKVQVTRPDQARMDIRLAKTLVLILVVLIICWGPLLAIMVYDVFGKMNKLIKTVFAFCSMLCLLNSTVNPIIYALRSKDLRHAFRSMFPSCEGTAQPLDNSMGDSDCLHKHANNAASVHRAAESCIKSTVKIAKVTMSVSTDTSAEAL
T1 sequence (P47746 whole entry): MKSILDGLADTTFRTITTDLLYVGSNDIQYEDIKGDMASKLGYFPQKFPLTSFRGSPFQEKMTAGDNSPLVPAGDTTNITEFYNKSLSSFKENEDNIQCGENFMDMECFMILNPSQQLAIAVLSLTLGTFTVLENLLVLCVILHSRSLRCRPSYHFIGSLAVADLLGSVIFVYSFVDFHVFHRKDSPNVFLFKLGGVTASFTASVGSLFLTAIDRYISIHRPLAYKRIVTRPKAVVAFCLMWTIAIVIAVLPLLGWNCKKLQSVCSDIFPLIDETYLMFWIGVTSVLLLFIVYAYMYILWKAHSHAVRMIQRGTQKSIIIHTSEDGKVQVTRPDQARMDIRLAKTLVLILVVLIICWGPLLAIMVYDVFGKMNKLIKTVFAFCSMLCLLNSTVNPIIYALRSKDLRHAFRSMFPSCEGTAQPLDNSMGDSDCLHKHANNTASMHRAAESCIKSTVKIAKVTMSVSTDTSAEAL

| SMILES | Test Results (body temperature-lowering action) (CB1 receptor) | IC50 (human CB2 receptor) | IC50 (human CB1 receptor) | IC50 (human CB2 receptor; 500 pM [3H]-CP55940, CHO cell membrane fraction expressing human CB2 receptor, read-out: CB2 IC50 value) | IC50 (human CB1 receptor; 500 pM [3H]-CP55940, CHO cell membrane fraction expressing human CB1 receptor, room temperature, 60 minutes, read-out: CB1 IC50 value) | IC50 (human CB2 receptor; read-out: CB2 IC50 value, 500 pM [3H]-CP55940, CHO cell membrane fraction expressing human CB2 receptor) | IC50 (human CB1 receptor; read-out: CB1 IC50 value, 500 pM [3H]-CP55940, CHO cell membrane fraction expressing human CB1 receptor, room temperature, 60 minutes) |
| --- | --- | --- | --- | --- | --- | --- | --- |
| Cc1c(NC(=O)CC(C)(C)C)c(C)c2c(c1C(C)O)OCC2c1ccc(C(C)C)cc1 (single isomer, unassigned) [Example 28, N-(7-(1-Hydroxyethyl)-3-(4-isopropylphenyl)-4,6-dimethyl-2,3-dihydro-1-benzofuran-5-yl)-3,3-dimethylbutanamide] | Effective (estimated as effective if the compound of the present invention lowered the body temperature substantially by 1 °C or more when compared with the control group 30 minutes after administration of 1 mg/kg, i.p.) | < 0.01 µM | < 0.01 µM |  |  |  |  |
| Cc1c(NC(=O)CC(C)(C)C)c(C)c2c(c1C(C)O)OCC2c1ccc(C(C)C)cc1 (stereo not drawn) [Example 22, N-(7-(1-Hydroxyethyl)-3-(4-isopropylphenyl)-4,6-dimethyl-2,3-dihydro-1-benzofuran-5-yl)-3,3-dimethylbutanamide] | Effective (estimated as effective if the compound of the present invention lowered the body temperature substantially by 1 °C or more when compared with the control group 30 minutes after administration of 1 mg/kg, i.p.) | < 0.01 µM | 0.011 µM |  |  |  |  |
| CCCc1c(C)c(NC(=O)CC(C)(C)C)c(C)c2c1OCC2c1ccc(C(C)C)cc1 (stereo not drawn) [Example 34, N-(3-(4-Isopropylphenyl)-4,6-dimethyl-7-propyl-2,3-dihydro-1-benzofuran-5-yl)-3,3-dimethylbutanamide] | Effective (estimated as effective if the compound of the present invention lowered the body temperature substantially by 1 °C or more when compared with the control group 30 minutes after administration of 1 mg/kg, i.p.) | < 0.01 µM | < 0.01 µM |  |  |  |  |
| Cc1c(C)c2c(c(C)c1NC(=O)CC(C)(C)C)C(c1ccc(C(C)C)cc1)CO2 (stereo not drawn) [Example 1, N-(3-(4-Isopropylphenyl)-4,6,7-trimethyl-2,3-dihydro-1-benzofuran-5-yl)-3,3-dimethylbutanamide] | Effective (estimated as effective if the compound of the present invention lowered the body temperature substantially by 1 °C or more when compared with the control group 30 minutes after administration of 1 mg/kg, i.p.) | < 0.01 µM | 0.02 µM |  |  |  |  |
| Cc1ccc(C)c2c1OC(=O)C2c1ccc(C(C)C)cc1 (stereo not drawn) [Reference Example 230] |  | 0.055 µM | 0.055 µM |  |  |  |  |
| Cc1c(C)c2c(c(C)c1NC(=O)NC(C)(C)C)C(c1ccc(C(C)C)cc1)CO2 (stereo not drawn) [Example 14, N-(tert-Butyl)-N′-(3-(4-isopropylphenyl)-4,6,7-trimethyl-2,3-dihydro-1-benzofuran-5-yl)urea] | Effective (estimated as effective if the compound of the present invention lowered the body temperature substantially by 1 °C or more when compared with the control group 30 minutes after administration of 1 mg/kg, i.p.) | < 0.01 µM | 0.02 µM |  |  |  |  |
| CCC(O)c1c(C)c(NC(=O)CC(C)(C)C)c(C)c2c1OCC2c1ccc(C(C)C)cc1 (single isomer, unassigned) [Example 31, N-(7-(1-Hydroxypropyl)-3-(4-isopropylphenyl)-4,6-dimethyl-2,3-dihydro-1-benzofuran-5-yl)-3,3-dimethylbutanamide] | Effective (estimated as effective if the compound of the present invention lowered the body temperature substantially by 1 °C or more when compared with the control group 30 minutes after administration of 1 mg/kg, i.p.) | < 0.01 µM | < 0.01 µM |  |  |  |  |
| COc1c(C)c(NC(=O)CC(C)(C)C)c(C)c2c1OCC2c1ccc(C(C)C)cc1 (stereo not drawn) [Example 36, N-(3-(4-Isopropylphenyl)-7-methoxy-4,6-dimethyl-2,3-dihydro-1-benzofuran-5-yl)-3,3-dimethylbutanamide] | Effective (estimated as effective if the compound of the present invention lowered the body temperature substantially by 1 °C or more when compared with the control group 30 minutes after administration of 1 mg/kg, i.p.) | < 0.01 µM | < 0.01 µM |  |  |  |  |
| CCOC(=O)C(C)(C)Oc1cc(C)cc(C)c1Cc1ccc(C(C)C)cc1 [Reference Example 153] |  |  |  | 0.56 µM | 0.11 µM |  |  |
| Cc1c(C)c(C(CO)c2ccc(C(C)C)cc2)c(O)c(C)c1Br (stereo not drawn) [Reference Example 234] |  | 0.031 µM | 0.04 µM |  |  |  |  |
| CCC(=O)Nc1c(C)c(C)c2c(c1C)C(c1ccc(C(C)C)cc1)CO2 (stereo not drawn) [Example 9, N-(3-(4-Isopropylphenyl)-4,6,7-trimethyl-2,3-dihydro-1-benzofuran-5-yl)propionamide] |  | 0.011 µM | 0.079 µM |  |  |  |  |
| Cc1c(NC(=O)CC(C)(C)C)c(C)c(C(C)(C)O)c2c1C(c1ccc(C(C)C)cc1)CO2 (stereo not drawn) [Example 33, N-(7-(1-Hydroxy-1-methylethyl)-3-(4-isopropylphenyl)-4,6-dimethyl-2,3-dihydro-1-benzofuran-5-yl)-3,3-dimethylbutanamide] | Effective (estimated as effective if the compound of the present invention lowered the body temperature substantially by 1 °C or more when compared with the control group 30 minutes after administration of 1 mg/kg, i.p.) | < 0.01 µM | 0.014 µM |  |  |  |  |
| Cc1c(C)c2c(c(C)c1NC(=O)CC(C)(C)C)[C@@H](c1ccc(C(C)C)cc1)CO2 [Example 7, (+)-N-((3R)-3-(4-Isopropylphenyl)-4,6,7-trimethyl-2,3-dihydro-1-benzofuran-5-yl)-3,3-dimethylbutanamide] | Effective (estimated as effective if the compound of the present invention lowered the body temperature substantially by 1 °C or more when compared with the control group 30 minutes after administration of 1 mg/kg, i.p.) | < 0.01 µM | < 0.01 µM |  |  |  |  |
| Cc1c(NC(=O)CC(C)(C)C)c(C)c2c(c1C(C)O)OCC2c1ccc(C(C)C)cc1 (single isomer, unassigned) [Example 29, N-(7-(1-Hydroxyethyl)-3-(4-isopropylphenyl)-4,6-dimethyl-2,3-dihydro-1-benzofuran-5-yl)-3,3-dimethylbutanamide] | Effective (estimated as effective if the compound of the present invention lowered the body temperature substantially by 1 °C or more when compared with the control group 30 minutes after administration of 1 mg/kg, i.p.) |  |  |  |  | < 0.01 µM | < 0.01 µM |
| Cc1c(Br)c2c(c(C)c1NC(=O)CC(C)(C)C)C(c1ccc(C(C)C)cc1)CO2 (stereo not drawn) [Example 35, N-(7-Bromo-3-(4-isopropylphenyl)-4,6-dimethyl-2,3-dihydro-1-benzofuran-5-yl)-3,3-dimethylbutanamide] | Effective (estimated as effective if the compound of the present invention lowered the body temperature substantially by 1 °C or more when compared with the control group 30 minutes after administration of 1 mg/kg, i.p.) | < 0.01 µM | < 0.01 µM |  |  |  |  |
| CC(=O)c1c(C)c(NC(=O)CC(C)(C)C)c(C)c2c1OCC2c1ccc(C(C)C)cc1 (stereo not drawn) [Example 32, N-(7-Acetyl-3-(4-isopropylphenyl)-4,6-dimethyl-2,3-dihydro-1-benzofuran-5-yl)-3,3-dimethylbutanamide] | Effective (estimated as effective if the compound of the present invention lowered the body temperature substantially by 1 °C or more when compared with the control group 30 minutes after administration of 1 mg/kg, i.p.) | < 0.01 µM | < 0.01 µM |  |  |  |  |
| CCc1c(C)c(NC(=O)CC(C)(C)C)c(C)c2c1OCC2c1ccc(C(C)C)cc1 (stereo not drawn) [Example 23, N-(7-Ethyl-3-(4-isopropylphenyl)-4,6-dimethyl-2,3-dihydro-1-benzofuran-5-yl)-3,3-dimethylbutanamide] | Effective (estimated as effective if the compound of the present invention lowered the body temperature substantially by 1 °C or more when compared with the control group 30 minutes after administration of 1 mg/kg, i.p.) | < 0.01 µM | < 0.01 µM |  |  |  |  |
| Cc1cc(C)c2c(c1)SCC2c1ccc(C(C)C)cc1 (stereo not drawn) [Reference Example 212] |  | < 0.01 µM | 0.069 µM |  |  |  |  |
| Cc1ccc(C)c(C(CO)c2ccc(C(C)C)cc2)c1O (stereo not drawn) [Reference Example 233] |  | 0.047 µM | 0.038 µM |  |  |  |  |
